Patent publication US12134607B2, “Crystals of tetrahydronaphthyl urea derivative” (MOCHIDA PHARMACEUTICAL CO., LTD., priority 2017, dated 2024)
In brackets after ≈: the same amount, converted by molar mass.

How the values were obtained:
human TrkA protein = human TrkA protein (Homo sapiens (Human), UniProt P04629); test: Evaluation on binding activity against human TrkA protein (TrkA LanthaScreen Eu Kinase Binding Assay)
Method: (Pharmacology Experiment 1): Evaluation on Binding Activity Against Human TrkA Protein
Measurements were made using TrkA LanthaScreen™ Eu Kinase Binding Assay (ThermoFisher SCIENTIFIC). Into 384 well plates (Corning), a 2.5 μL solution having each concentration of the test compound (1) diluted in Kinase buffer (ThermoFisher SCIENTIC) and a 2.5 μL having 15 nM TrkA enzyme (ThermoFisher SCIENTIFIC) were added. In addition, a 5 μL having 3 nM Eu-anti-His Tag […] (ThermoFisher SCIENTIFIC) and 5 μL having 30 nM Kinase™ Tracer 236 (ThermoFisher SCIENTIFIC) were added, and allowed to react at room temperature for 60 minutes. After the reaction, the fluorescence ratio was calculated as the binding amount of the test compound (1) with TrkA enzyme, by measuring the fluorescence intensity (Emission wavelength 615 nm) and TR-FRET (Emission wavelength 665 nm) of Europium by the excitation wavelength of 340 nm using EnVision 2100 (PerkinElmer). […]
The inhibitory activity of each crystal of the test compound (1), which is 1-((1R,2R)-2-hydroxy-4,4-dimethyl-1,2,3,4-tetrahydronaphthalen-1-yl)-3-(5-methyl-6-(2-methylpyrimidin-5-yl)-2-phenylpyridin-3-yl)urea can be assessed by IC50 value.

[1] = Safety observation in pharmacology experiments 3 and 4 in rats; assay type: in vivo; conditions: oral administration
Method: (Pharmacology Experiment 3): Inhibitory Effect on NGF-Induced Vascular Permeability Increase in Rats
The inhibitory activity against TrkA in vivo was evaluated. Clipped back male Sprague-Dawley rats (CD(SD)IGS rats, Charles River, Japan) were orally administered test compound (1) dissolved or suspended in a solvent (dose volume: 5 mL/kg). Vehicle controls were treated orally with vehicle. […] A 200 μL of the formamide extract was transferred to a 96-well plate (Nunc), and the absorbance (wavelength: 620 nm) of Evans blue extracted into formamide was measured using SpectraMax (Molecular Device). […]
The analgesic effect of the test compound (1) was evaluated in a CFA-induced rat model. […]
Measurements were made 7 days after CFA administration. After calming the animals to the measurement environment for at least 1 hour, the footpads were stimulated with von Frey filaments according to the Dixon up-down method (Journal of Neuroscience Methods, Vol. 53, pp. 55-63, 1994), and then 50% threshold (g) was calculated by the following equation. […]

[2] = Determination of equilibrium solubility in phosphate buffer solution with pH 6.8; assay type: physicochemical; conditions: pH 6.8 phosphate buffer, 37° C., mean value of three measurements
From the text: (Test Example 1) Determination of Equilibrium Solubility (Determination of Solubility in Phosphate Buffer Solution with pH 6.8)
Each of the equilibrium solubilities (solubility in phosphate buffer solution with pH 6.8) of Type I (Example 2), III (Example 3), V (Example 4) and VI crystals (Example 5) of 1-((1R,2R)-2-hydroxy-4,4-dimethyl-1,2,3,4-tetrahydronaphthalen-1-yl)-3-(5-methyl-6-(2-methylpyrimidin-5-yl)-2-phenylpyridin-3-yl)urea obtained in the above (Example 2) to (Example 5) was determined as follows:
Water was added a weighed potassium dihydrogen phosphate of 2.7 g to make 100 mL volume to prepare 0.2 mol/L potassium dihydrogen phosphate solution. Water was added a weighed disodium hydrogen phosphate […] of 7.2 g to make 100 mL volume to prepare 0.2 mol/L disodium hydrogen phosphate solution. A pH 6.8 phosphate buffer solution was prepared by diluting a mixture of 0.2 mol/L potassium dihydrogen phosphate solution (14.8 mL) and 0.2 mol/L disodium hydrogen phosphate solution (10.0 mL) with water (173.6 mL).
Approximately 1 mg of the each crystal from (Example 2) to (Example 5) was weighed into a screw tube, and a pH 6.8 phosphate buffer solution (1 mL) was added. An isothermal shaker (M-BR-022UP) was used to incubate the sample at 37° C. and 1000 rpm for 24 hours. 100 μL solution were sampled at 1, 2, 6, and 24 hours after the start of incubation, and were filtered using a centrifuge (HITACHI, Himac cF 9RX, at 25° C., at 1500 rpm, for 30 seconds) with a filter (Millipore: Multiscreen, MSSLBPC10) so as to remove insoluble materials. A 20 μL of the filtrate was quantified, and diluted with a solution (180 μL, pH 9.0) of 20 vol % tetrahydrofuran and 80 vol % ammonium bicarbonate aqueous solution (10 mM). A 10 μL of the prepared solution was quantified, and diluted with a solution (190 μL, pH 9.0) of 20 vol % tetrahydrofuran and 80 vol % ammonium bicarbonate aqueous solution (10 mM). The prepared solution was analyzed by ultra performance liquid chromatography (UPLC) under the following measurement conditions, and the concentration of the compound in the solution was calculated based on a previously prepared calibration curve. Three times of measurements were made for each example compound, and the mean values and standard deviations of the three measurements are shown as a result in Table 6.
<UPLC measurement conditions> Equipment: ACQUITY UPLC H-Class (Waters) Detector: PDA (200-500 nm) Column: BEH C18 2.1×50 mm Measurement wavelength: 270 nm Column temperature: 40° C. Injection amount: 10 μL Mobile phase: • Solvent A, acetonitrile; • Solvent B, 10 mM ammonium bicarbonate aqueous solution (pH 9.0) Gradient conditions: […]

Storage stability test = assay type: physicochemical
Method: For the stability test, approximately 20 mg of the test sample was stored at 25° C./60% RH or at 40° C./75% RH in open or closed condition for 1 month using a small environmental tester SH-641 (manufactured by Espec), and changes in purity and in crystalline form were observed.
For purity measurement, equipment of Waters ACQUITY UPLC H-Class (manufactured by Waters) and column of Waters ACQUITY BEH C18 (particle diameter […], size 2.1×50 mm) are used. For the mobile phase, 10 mmol/L ammonium bicarbonate buffer pH 9.0 and acetonitrile were used; and the test sample solution at 100 μg/mL in the mixture solvent of THF (tetrahydrofuran):10 mmol/L ammonium bicarbonate buffer (20:80) was prepared.
(Test Example 2) Storage Stability Test
The type I (Example 2), III (Example 3), V (Example 4) and VI (Example 5) crystals (each about 20 mg) of 1-((1R,2R)-2-hydroxy-4,4-dimethyl-1,2,3,4-tetrahydronaphthalen-1-yl)-3-(5-methyl-6-(2-methylpyrimidin-5-yl)-2-phenylpyridin-3-yl)urea obtained in the above Examples 2 to 5 were stored in glass bottles under the respective conditions described in Table 7. After completion of the storage period, the retrieved sample was confirmed on the purity by high performance liquid chromatography and on the crystal form by powder X-ray diffraction analysis as in the Examples.

[3] = Photostability test according to ICH Q1B; assay type: physicochemical
Method: (Test Example 3) Photostability Test
The type I (Example 2), III (Example 3), V (Example 4), and VI (Example 5) crystals (each about 20 mg) of 1-((1R,2R)-2-hydroxy-4,4-dimethyl-1,2,3,4-tetrahydronaphthalen-1-yl)-3-(5-methyl-6-(2-methylpyrimidin-5-yl)-2-phenylpyridin-3-yl)urea obtained in the above Examples 2 to 5 were placed in a transparent plastic container and covered, and were subjected to photostability test according to the ICH Q1B (Guidelines on Photostability Testing of New Active Substances and Medicinal Products) described in Table 8 (Here, the photostability test samples were stored at about 25° C. under separate lamps which respectively emits visible light and UV-A light so that the total light exposure should be 1.2 million lux hours and 200 W hours/m^2 or more, respectively. A 5-day study should be designated as “0.5 ICH” and a 10-day study as “1 ICH”). […] After completion of the test, the retrieved sample was confirmed on the purity by high performance liquid chromatography and on the crystal form by powder X-ray diffraction analysis as in the Examples.

[4] = 25° C./60% RH, closed for 1 month
[5] = 25° C./60% RH, open for 1 month
[6] = 40° C./75% RH, closed for 1 month
[7] = 40° C./75% RH, open for 1 month
[8] = Shielded from light by aluminum foil, 0.5 ICH
[9] = Shielded from light by aluminum foil, 1 ICH
[10] = Shielded from light by aluminum foil, Before the test

Sequence of human TrkA protein (P04629 33-796): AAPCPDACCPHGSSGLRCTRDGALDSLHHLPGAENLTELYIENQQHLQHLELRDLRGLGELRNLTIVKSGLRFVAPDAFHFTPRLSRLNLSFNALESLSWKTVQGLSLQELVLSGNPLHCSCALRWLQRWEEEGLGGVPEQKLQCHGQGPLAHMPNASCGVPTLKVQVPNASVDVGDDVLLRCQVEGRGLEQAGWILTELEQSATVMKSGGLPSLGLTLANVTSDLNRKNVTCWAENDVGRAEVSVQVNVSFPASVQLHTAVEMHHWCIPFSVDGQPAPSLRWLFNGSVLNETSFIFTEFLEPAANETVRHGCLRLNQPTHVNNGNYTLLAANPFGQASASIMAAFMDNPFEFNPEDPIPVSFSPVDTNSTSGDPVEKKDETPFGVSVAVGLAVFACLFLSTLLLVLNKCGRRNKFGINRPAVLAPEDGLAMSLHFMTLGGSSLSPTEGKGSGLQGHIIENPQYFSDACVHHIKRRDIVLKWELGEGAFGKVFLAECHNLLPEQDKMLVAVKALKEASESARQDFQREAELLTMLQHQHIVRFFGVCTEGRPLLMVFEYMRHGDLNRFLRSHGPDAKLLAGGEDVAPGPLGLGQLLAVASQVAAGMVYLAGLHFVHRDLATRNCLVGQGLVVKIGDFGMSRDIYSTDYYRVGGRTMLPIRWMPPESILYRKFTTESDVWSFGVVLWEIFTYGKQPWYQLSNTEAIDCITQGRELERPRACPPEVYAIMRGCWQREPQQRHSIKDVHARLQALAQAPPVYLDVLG

Cc1ncc(-c2nc(-c3ccccc3)c(NC(=O)N[C@@H]3c4ccccc4C(C)(C)C[C@H]3O)cc2C)cn1 [Example 1, 1-((1R,2R)-2-hydroxy-4,4-dimethyl-1,2,3,4-tetrahydronaphthalen-1-yl)-3-(5-methyl-6-(2-methylpyrimidin-5-yl)-2-phenylpyridin-3-yl)urea]
TrkA inhibitory effect (human TrkA protein; result in words): excellent | Abnormalities in the safety test [1]: no abnormalities

Cc1ncc(-c2nc(-c3ccccc3)c(NC(=O)N[C@@H]3c4ccccc4C(C)(C)C[C@H]3O)cc2C)cn1 [Example 3, 1-((1R,2R)-2-hydroxy-4,4-dimethyl-1,2,3,4-tetrahydronaphthalen-1-yl)-3-(5-methyl-6-(2-methylpyrimidin-5-yl)-2-phenylpyridin-3-yl)urea]
IC50 (human TrkA protein; TrkA enzyme, Kinase Tracer 236, TR-FRET): ≤ 0.05 µM | Solubility [2]: 66.0 µg/mL (≈ 134 µM) | Chemical purity (%) (Storage stability test; [4]): 100.00% | Crystalline form after completion of storage period (Storage stability test; [4]): Type III crystal | Chemical purity (%) (Storage stability test; [5]): 100.00% | Crystalline form after completion of storage period (Storage stability test; [5]): Type III crystal | Chemical purity (%) (Storage stability test; [6]): 100.00% | Crystalline form after completion of storage period (Storage stability test; [6]): Type III crystal | Chemical purity (%) (Storage stability test; [7]): 100.00% | Crystalline form after completion of storage period (Storage stability test; [7]): Type III crystal | Chemical purity (%) (Storage stability test; Before the test): 100.00% | Crystalline form after completion of storage period (Storage stability test; Before the test): Type III crystal | Chemical purity (%) ([3]; Exposure, 0.5 ICH (5-day)): 100.0% | Crystalline form after completion of storage period ([3]; Exposure, 0.5 ICH (5-day)): Type III crystal | Chemical purity (%) ([3]; Exposure, 1 ICH (10-day)): 100.0% | Crystalline form after completion of storage period ([3]; Exposure, 1 ICH (10-day)): Type III crystal | Chemical purity (%) ([3]; Exposure, Before the test): 100.0% | Crystalline form after completion of storage period ([3]; Exposure, Before the test): Type III crystal | Chemical purity (%) [3, 8]: 100.0% | Crystalline form after completion of storage period [3, 8]: Type III crystal | Chemical purity (%) [3, 9]: 100.0% | Crystalline form after completion of storage period [3, 9]: Type III crystal | Chemical purity (%) [3, 10]: 100.0% | Crystalline form after completion of storage period [3, 10]: Type III crystal | Stability against light ([3]; result in words, listed as type III crystal): stable against light
